How the values were obtained:
[1] = target: T1, human adenosine A1 receptor (Homo sapiens, UniProt P30542); experiment: Adenosine A1 Receptor Functional Assay (A1GAL2); format: cell-based; settings: CHO-K1 cells overexpressing human A1 receptor, cAMP inducible beta-galactosidase reporter; antagonist mode vs 4 nM r-PIA/1 uM Forskolin challenge
T1 construct: expressed in transfected cells; host or cells: CHO-K1 cells with cAMP inducible beta-galactosidase reporter gene
T1 sequence (P30542 1-326): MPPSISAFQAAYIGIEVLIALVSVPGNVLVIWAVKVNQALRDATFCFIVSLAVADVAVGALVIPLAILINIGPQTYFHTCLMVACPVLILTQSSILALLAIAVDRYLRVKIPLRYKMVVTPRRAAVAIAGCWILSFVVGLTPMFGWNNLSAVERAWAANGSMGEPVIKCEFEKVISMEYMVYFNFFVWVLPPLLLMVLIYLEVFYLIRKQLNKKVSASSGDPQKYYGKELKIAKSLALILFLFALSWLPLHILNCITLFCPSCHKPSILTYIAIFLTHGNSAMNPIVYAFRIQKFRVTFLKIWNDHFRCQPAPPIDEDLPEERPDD
Experimental: Adenosine A1 Receptor Functional Assay (A1GAL2)
To initiate the functional assay, cryopreserved CHO—K1 cells overexpressing the human adenosine A1 receptor and containing a cAMP inducible beta-galactosidase reporter gene were thawed, centrifuged, DMSO containing media removed, and then seeded with fresh culture media into clear 384-well tissue culture treated plates (BD #353961) at a concentration of 10K cells/well. Prior to assay, these plates were cultured for two days at 37° C., 5% CO2, 90% Rh. On the day of the functional assay, culture media was removed and replaced with 45 μL assay medium (Hams/F-12 Modified (Mediatech # 10-080CV) supplemented w/0.1% BSA). Test compounds were diluted and 11 point curves created at a 1000× concentration in 100% DMSO. Immediately after addition of assay media to the cell plates, […] of the appropriate test compound antagonist or agonist control curves were added to cell plates using a Cartesian Hummingbird. Compound curves were allowed to incubate at room temperature on cell plates for approximately 15 minutes before addition of a 4 nM r-PIA (Sigma P4532)/1 uM Forskolin (Sigma F3917) agonist challenge (5 μL volume). A control curve of r-PIA in 1 uM Forskolin, a DMSO/Media control, and a single dose of Forskolin were also included on each plate. After additions, cell plates were allowed to incubate at 37° C., 5% CO2, 90% Rh for 5.5-6 hours. After incubation, media was removed, and cell plates were washed 1×50 μL with DPBS w/o Ca & Mg (Mediatech 21-031-CV). Into dry wells, 20 μL of 1× Reporter Lysis Buffer (Promega E3971 (diluted in dH2O from 5× stock)) was added to each well and plates frozen at −20° C. overnight. For β-galactosidase enzyme colorimetric assay, plates were thawed out at room temperature and 20 μL 2× assay buffer (Promega) was added to each well. Color was allowed to develop at 37° C., 5% CO2, 90% Rh for 1-1.5 h or until reasonable signal appeared. The colorimetric reaction was stopped with the addition of 60 μL/well 1M sodium carbonate. Plates were counted at 405 nm on a SpectraMax Microplate Reader (Molecular Devices). Data was analyzed in Microsoft Excel and IC/EC50 curves were fit using a standardized macro.

[2] = target: T2, human adenosine A2A receptor (Homo sapiens, UniProt P29274); experiment: Adenosine A2A Receptor Functional Assay (A2AGAL2); format: cell-based; settings: for IC50: CHO-K1 cells overexpressing human A2A receptor, cAMP inducible beta-galactosidase reporter, antagonist mode vs 15 nM NECA challenge; for A1/A2A: selectivity ratio of A1Gal2 value to A2AGal2 value
T2 construct: expressed in transfected cells; host or cells: CHO-K1 cells with cAMP inducible beta-galactosidase reporter gene
T2 sequence (P29274 whole entry): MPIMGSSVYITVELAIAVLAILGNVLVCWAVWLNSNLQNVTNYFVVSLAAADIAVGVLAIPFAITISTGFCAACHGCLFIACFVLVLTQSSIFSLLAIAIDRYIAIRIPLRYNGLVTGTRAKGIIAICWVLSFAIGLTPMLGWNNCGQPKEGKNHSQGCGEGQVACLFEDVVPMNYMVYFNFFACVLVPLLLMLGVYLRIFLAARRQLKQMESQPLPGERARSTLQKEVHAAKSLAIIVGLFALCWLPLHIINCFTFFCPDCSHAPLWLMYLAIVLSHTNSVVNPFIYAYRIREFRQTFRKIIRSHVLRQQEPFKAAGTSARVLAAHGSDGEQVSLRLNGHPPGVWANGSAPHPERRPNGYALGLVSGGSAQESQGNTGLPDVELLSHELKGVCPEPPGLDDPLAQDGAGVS
Experimental: Adenosine A2A Receptor Functional Assay (A2AGAL2)
To initiate the functional assay, cryopreserved CHO—K1 cells overexpressing the human adenosine A2A receptor and containing a cAMP inducible beta-galactosidase reporter gene were thawed, centrifuged, DMSO containing media removed, and then seeded with fresh culture media into clear 384-well tissue culture treated plates (BD #353961) at a concentration of 10K cells/well. Prior to assay, these plates were cultured for two days at 37° C., 5% CO2, 90% Rh. On the day of the functional assay, culture media was removed and replaced with 45 μL assay medium (Hams/F-12 Modified (Mediatech #10-080CV) supplemented w/0.1% BSA). Test compounds were diluted and 11 point curves created at a 1000× concentration in 100% DMSO. Immediately after addition of assay media to the cell plates, 50 nL of the appropriate test compound antagonist or agonist control curves were added to cell plates using a Cartesian Hummingbird. Compound curves were allowed to incubate at room temperature on cell plates for approximately 15 minutes before addition of a 15 nM NECA (Sigma E2387) agonist challenge (5 μL volume). A control curve of NECA, a DMSO/Media control, and a single dose of Forskolin (Sigma F3917) were also included on each plate. After additions, cell plates were allowed to incubate at 37° C., 5% CO2, 90% Rh for 5.5-6 hours. After incubation, media were removed, and cell plates were washed 1×50 μL with DPBS w/o Ca & Mg (Mediatech 21-031-CV). Into dry wells, 20 μL of 1× Reporter Lysis Buffer (Promega E3971 (diluted in dH2O from 5× stock)) was added to each well and plates frozen at −20° C. overnight. For β-galactosidase enzyme colorimetric assay, plates were thawed out at room temperature and 20 μL 2× assay buffer (Promega) was added to each well. Color was allowed to develop at 37° C., 5% CO2, 90% Rh for 1-1.5 h or until reasonable signal appeared. The colorimetric reaction was stopped with the addition of 60 μL/well 1M sodium carbonate. Plates were counted at 405 nm on a SpectraMax Microplate Reader (Molecular Devices). Data was analyzed in Microsoft Excel and IC/EC50 curves were fit using a standardized macro.

SMILES	IC50 [1] [nM]	IC50 [2] [nM]	A1/A2A [2]
CC(C)CCN1CCN(c2ccc(-c3cccc4c3-c3nc(N)nc(-c5ccc(F)cc5)c3C4=O)cn2)CC1 [Example 11, 2-Amino-4-(4-fluoro-phenyl)-9-{6-[4-(3-methyl-butyl)-piperazin-1-yl]-pyridin-3-yl}-indeno[1,2-d]pyrimidin-5-one]	1000	18	55.5556
Cc1nc(-c2ccccc2)sc1-c1cccc2c1-c1nc(N)nc(-c3ccccc3)c1C2=O [Example 1, 2-Amino-9-(4-methyl-2-phenyl-thiazol-5-yl)-4-phenyl-indeno[1,2-d]pyrimidin-5-one]	7500	7.1	1056.34
Nc1nc(-c2ccc(F)cc2)c2c(n1)-c1c(cccc1-c1ccc(N3CCN(CC4CC4)CC3)nc1)C2=O [Example 9, 2-Amino-9-[6-(4-cyclopropylmethyl-piperazin-1-yl)-pyridin-3-yl]-4-(4-fluoro-phenyl)-indeno[1,2-d]pyrimidin-5-one]	580	7.9	73.4177
CCOC(=O)Cn1cc(-c2cccc3c2-c2nc(N)nc(-c4ccc(F)cc4)c2C3=O)cn1 [Example 6, {4-[2-Amino-4-(4-fluoro-phenyl)-5-oxo-5H-indeno[1,2-d]pyrimidin-9-yl]-pyrazol-1-yl}-acetic acid ethyl ester]	225	4.2	53.6847
Cc1nc(-c2ccc(C(F)(F)F)cc2)sc1-c1cccc2c1-c1nc(N)nc(-c3ccc(F)cc3)c1C2=O [Example 3, 2-Amino-4-(4-fluoro-phenyl)-9-[4-methyl-2-(4-trifluoromethyl-phenyl)-thiazol-5-yl]-indeno[1,2-d]pyrimidin-5-one]	5400	50	108

Next, values leading:

IC50 [1] [nM]	IC50 [2] [nM]	A1/A2A [2]	SMILES
870	17	51.1765	Cc1c(-c2cccc3c2-c2nc(N)nc(-c4ccccc4)c2C3=O)cnn1-c1ccccc1 [Example 7, 2-Amino-9-(5-methyl-1-phenyl-1H-pyrazol-4-yl)-4-phenyl-indeno [1,2-d]pyrimidin-5-one]
560	5.6	100	Nc1nc(-c2ccccc2)c2c(n1)-c1c(cccc1-c1ccc(N3CCN(Cc4ccccc4)CC3)nc1)C2=O [Example 8, 2-Amino-9-[6-(4-benzyl-piperazin-1-yl)-pyridin-3-yl]-4-phenyl-indeno [1,2-d]pyrimidin-5-one]
120	1.3	92.3077	N#Cc1ccc(-c2cccc3c2-c2nc(N)nc(-c4ccccc4)c2C3=O)s1 [Example 4, 5-(2-Amino-5-oxo-4-phenyl-5H-indeno[1,2-d]pyrimidin-9-yl)-thiophene-2-carbonitrile]
920	17		Cc1nc(-c2ccccc2)sc1-c1cccc2c1-c1nc(N)nc(-c3ccc(F)cc3)c1C2=O [Example 5, 2-Amino-4-(4-fluoro-phenyl)-9-(4-methyl-2-phenyl-thiazol-5-yl)-indeno[1,2-d]pyrimidin-5-one]
190	3	63.3333	Cc1cc(-c2cccc3c2-c2nc(N)nc(-c4ccccc4)c2C3=O)cnc1N1CCN(C)CC1 [Example 10, 2-Amino-9-[5-methyl-6-(4-methyl-piperazin-1-yl)-pyridin-3-yl]-4-phenyl-indeno [1,2-d]pyrimidin-5-one]
2030	12.7	160.288	Nc1nc(-c2ccc(F)cc2)c2c(n1)-c1c(cccc1-c1cnn(CCN3CCOCC3)c1)C2=O [Example 2, 2-Amino-4-(4-fluoro-phenyl)-9-[1-(2-morpholin-4-yl-ethyl)-1H-pyrazol-4-yl]-indeno[1,2-d]pyrimidin-5-one]

Source: patent publication US20110105494A1, “HETEROARYL SUBSTITUTED ARYLINDENOPYRIMIDINES AND THEIR USE AS HIGHLY SELECTIVE ADENOSINE A2A RECEPTOR ANTAGONISTS” (priority 2009, published 2011)
